Reference: patent US8497383B2, “HIV protease inhibitors” (Merck Sharp & Dohme Corp., priority 2009, dated 2013)

Tests used:
wild-type HIV-1 protease = biological target: T1, wild-type HIV-1 protease (Human immunodeficiency virus type 1 group M subtype B, UniProt P04585); experiment: Assay for inhibition of microbial expressed HIV protease; assay type: biochemical
T1 construct: the protease (which was expressed in Eschericia coli); made in house; host or cells: Escherichia coli
Method: Inhibition studies of the reaction of the protease (which was expressed in Eschericia coli) with a peptide substrate [Val-Ser-Gln-Asn-(betanapthyl)Ala-Pro-Ile-Val] (SEQ ID NO: 1). The inhibitor is first preincubated with the enzyme in assay buffer (50 mM sodium acetate, pH 5.5, 100 mM NaCl, and 0.1% BSA) for 30 minutes at room temperature. Substrate is added to 440 micromolar in a total volume of 80 microliters containing 5 picomolar HIV-1 protease, and the reaction is incubated for 1 hour at 30° C. The reaction is quenched by addition of 120 microliters of 10% phosphoric acid, and product formation is determined after separation of product and substrate on a Vydac C18 column connected to an Alliance high performance liquid chromatography system (Waters Corporation). The extent of inhibition of the reaction is determined from the peak area of the products.

[1] = test system: acute HIV infection of T-lymphoid cells (HIV-1 replication); experiment: Assay for inhibition of HIV replication (Spread Assay); assay type: cell-based; details: Human immunodeficiency virus 1, T-lymphoid, 10% FBS
Method: Assays for the inhibition of acute HIV infection of T-lymphoid cells were conducted in accordance with Vacca, J. P. et al., Proc. Natl. Acad. Sci. USA 1994, 91: 4096.

Structure (SMILES) | IC50 (wild-type HIV-1 protease) [nM] | IC95 [1] [nM] | inhibition at 0.5 µM ([1]; @ 500 nM, read-out: Spread - inhibition at a fixed concentration) [%]
COC(=O)N[C@H](C(=O)N[C@@H](C)CN[C@@H]1CNC[C@H]1N(CCC(C)C)S(=O)(=O)c1ccc(N)cc1)C(c1ccccc1)c1ccccc1 [Example 2, N-[(2S)-1-{[(3R,4R)-4-{[(4-aminophenyl)sulfonyl](3-methylbutyl)amino}pyrrolidin-3-yl]amino}propan-2-yl]-Nα-(methoxycarbonyl)-β-phenyl-L-phenylalaninamide] | 0.055 | 423 | –
COC(=O)N[C@H](C(=O)NCCN[C@@H]1CNC[C@H]1N(Cc1ccccc1)S(=O)(=O)c1ccc(N)cc1)C(c1ccccc1)c1ccccc1 [Example 9, N-(2-{[(3R,4R)-4-{[(4-aminophenyl)sulfonyl](benzyl)amino}pyrrolidin-3-yl]amino}ethyl)-Nα-(methoxycarbonyl)-β-phenyl-L-phenylalaninamide] | 8.6 | 505 | –
COC(=O)N[C@H](C(=O)N[C@H](CN[C@@H]1CNC[C@H]1N(CCC(C)C)S(=O)(=O)c1ccc(N)cc1)CC(C)C)C(c1ccccc1)c1ccccc1 [Example 5, N-[(2S)-1-{[(3R,4R)-4-{[(4-aminophenyl)sulfonyl](3-methylbutyl)amino}pyrrolidin-3-yl]amino}-4-methylpentan-2-yl]-Nα-(methoxycarbonyl)-β-phenyl-L-phenylalaninamide] | 3.2 | 405 | –
CCCCC(CN[C@@H]1CNC[C@H]1N(CCC(C)C)S(=O)(=O)c1ccc(N)cc1)NC(=O)[C@@H](NC(=O)OC)C(c1ccccc1)c1ccccc1 (stereo partly drawn) [Example 4, N-(1-{[(3R,4R)-4-{[(4-aminophenyl)sulfonyl](3-methylbutyl)amino}pyrrolidin-3-yl]amino}hexan-2-yl)-Nα-(methoxycarbonyl)-β-phenyl-L-phenylalaninamide] | 3.6 | 399 | –
COC(=O)N[C@H](C(=O)NCCN[C@@H]1CNC[C@H]1N(CCC(C)C)S(=O)(=O)c1ccc(N)cc1)C(c1ccccc1)c1ccccc1 [Example 1, N-(2-{[(3R,4R)-4-{[(4-aminophenyl)sulfonyl](3-methylbutyl)amino}pyrrolidin-3-yl]amino}ethyl)-Nα-(methoxycarbonyl)-β-phenyl-L-phenylalaninamide] | 0.7 | 495 | –
COC(=O)N[C@H](C(=O)NCCN[C@@H]1CNC[C@H]1N(CCC(C)C)S(=O)(=O)c1ccc(CO)cc1)C(c1ccccc1)c1ccccc1 [Example 11, N-[2-({(3R,4R)-4-[{[4-(hydroxymethyl)phenyl]sulfonyl}(3-methylbutyl)amino]pyrrolidin-3-yl}amino)ethyl]-Nalpha-(methoxycarbonyl)-beta-phenyl-L-phenylalaninamide] | 0.29 | 328 | –
COC(=O)N[C@H](C(=O)NC(C)(C)CN[C@@H]1CNC[C@H]1N(CCC(C)C)S(=O)(=O)c1ccc(N)cc1)C(c1ccccc1)c1ccccc1 [Example 6, N-(1-{[(3R,4R)-4-{[(4-aminophenyl)sulfonyl](3-methylbutyl)amino}pyrrolidin-3-yl]amino}-2-methylpropan-2-yl)-Nα-(methoxycarbonyl)-β-phenyl-L-phenylalaninamide] | 0.05 | 291 | –
COC(=O)N[C@H](C(=O)NCCC[C@@H]1CNC[C@H]1N(CCC(C)C)S(=O)(=O)c1ccc(N)cc1)C(c1ccccc1)c1ccccc1 (relative stereo) [Example 12, N-{3-[(3R*,4S*)-4-{[(4-aminophenyl)sulfonyl](3-methylbutyl)amino}pyrrolidin-3-yl]propyl}-Nα-(methoxycarbonyl)-β-phenyl-L-phenylalaninamide] | 0.05 | 324 | –
CC[C@@H](CN[C@@H]1CNC[C@H]1N(CCC(C)C)S(=O)(=O)c1ccc(N)cc1)NC(=O)[C@@H](NC(=O)OC)C(c1ccccc1)c1ccccc1 [Example 3, N-[(2S)-1-{[(3R,4R)-4-{[(4-aminophenyl)sulfonyl](3-methylbutyl)amino}pyrrolidin-3-yl]amino}butan-2-yl]-Nα-(methoxycarbonyl)-β-phenyl-L-phenylalaninamide] | 0.22 | 472 | –
COC(=O)N[C@H](C(=O)NCCN[C@@H]1CNC[C@H]1N(CC(C)C)S(=O)(=O)c1ccc(N)cc1)C(c1ccccc1)c1ccccc1 [Example 7, N-(2-{[(3R,4R)-4-{[(4-aminophenyl)sulfonyl](2-methylpropyl)amino}pyrrolidin-3-yl]amino}ethyl)-Nα-(methoxycarbonyl)-β-phenyl-L-phenylalaninamide] | 3.7 | 500 | –
COC(=O)N[C@H](C(=O)NCCN[C@@H]1CNC[C@H]1N(C(C)C)S(=O)(=O)c1ccc(N)cc1)C(c1ccccc1)c1ccccc1 [Example 8, N-(2-{[(3R,4R)-4-{[(4-aminophenyl)sulfonyl](isopropyl)amino}pyrrolidin-3-yl]amino}ethyl)-Nα-(methoxycarbonyl)-β-phenyl-L-phenylalaninamide] | 22 | – | 26
COC(=O)N[C@H](C(=O)NCCN(C)[C@@H]1CNC[C@H]1N(CCC(C)C)S(=O)(=O)c1ccc(N)cc1)C(c1ccccc1)c1ccccc1 [Example 10, N-{2-[{(3R,4R)-4-[[(4-aminophenyl)sulfonyl](3-methylbutyl)amino]pyrrolidin-3-yl}(methyl)amino]ethyl}-N-alpha-(methoxycarbonyl)-beta-phenyl-L-phenylalaninamide] | 15 | 217 | –
